Reference: BindingDB's records for doi:10.1021/acsmedchemlett.0c00015 (The Genomics Institute of The Novartis Research Foundation, 2020)

What was measured:
[1] = Inhibition of RET (unknown origin) transfected in mouse Ba/F3 cells assessed as reduction in cell viability incubated for 48 hrs by brightglo-luciferase reporter gene assay
[2] = Inhibition of BLK (unknown origin) transfected in mouse Ba/F3 cells assessed as reduction in cell viability incubated for 48 hrs by brightglo-luciferase reporter gene assay
[3] = Inhibition of BMX (unknown origin) transfected in mouse Ba/F3 cells assessed as reduction in cell viability incubated for 48 hrs by brightglo-luciferase reporter gene assay
[4] = Inhibition of FGR (unknown origin) transfected in mouse Ba/F3 cells assessed as reduction in cell viability incubated for 48 hrs by brightglo-luciferase reporter gene assay
[5] = Inhibition of FMS (unknown origin) transfected in mouse Ba/F3 cells assessed as reduction in cell viability incubated for 48 hrs by brightglo-luciferase reporter gene assay
[6] = Inhibition of KDR (unknown origin) transfected in mouse Ba/F3 cells assessed as reduction in cell viability incubated for 48 hrs by brightglo-luciferase reporter gene assay
[7] = Inhibition of KIT (unknown origin) transfected in mouse Ba/F3 cells assessed as reduction in cell viability incubated for 48 hrs by brightglo-luciferase reporter gene assay
[8] = Inhibition of LCK (unknown origin) transfected in mouse Ba/F3 cells assessed as reduction in cell viability incubated for 48 hrs by brightglo-luciferase reporter gene assay
[9] = Inhibition of LYN (unknown origin) transfected in mouse Ba/F3 cells assessed as reduction in cell viability incubated for 48 hrs by brightglo-luciferase reporter gene assay
[10] = Inhibition of MER (unknown origin) transfected in mouse Ba/F3 cells assessed as reduction in cell viability incubated for 48 hrs by brightglo-luciferase reporter gene assay
[11] = Inhibition of MET (unknown origin) transfected in mouse Ba/F3 cells assessed as reduction in cell viability incubated for 48 hrs by brightglo-luciferase reporter gene assay
[12] = Inhibition of RON (unknown origin) transfected in mouse Ba/F3 cells assessed as reduction in cell viability incubated for 48 hrs by brightglo-luciferase reporter gene assay
[13] = Inhibition of ROS (unknown origin) transfected in mouse Ba/F3 cells assessed as reduction in cell viability incubated for 48 hrs by brightglo-luciferase reporter gene assay
[14] = Inhibition of SRC (unknown origin) transfected in mouse Ba/F3 cells assessed as reduction in cell viability incubated for 48 hrs by brightglo-luciferase reporter gene assay
[15] = Inhibition of SYK (unknown origin) transfected in mouse Ba/F3 cells assessed as reduction in cell viability incubated for 48 hrs by brightglo-luciferase reporter gene assay
[16] = Inhibition of FLT1 (unknown origin) transfected in mouse Ba/F3 cells assessed as reduction in cell viability incubated for 48 hrs by brightglo-luciferase reporter gene assay
[17] = Inhibition of FLT3 (unknown origin) transfected in mouse Ba/F3 cells assessed as reduction in cell viability incubated for 48 hrs by brightglo-luciferase reporter gene assay
[18] = Inhibition of INSR (unknown origin) transfected in mouse Ba/F3 cells assessed as reduction in cell viability incubated for 48 hrs by brightglo-luciferase reporter gene assay
[19] = Inhibition of JAK2 (unknown origin) transfected in mouse Ba/F3 cells assessed as reduction in cell viability incubated for 48 hrs by brightglo-luciferase reporter gene assay
[20] = Inhibition of TIE1 (unknown origin) transfected in mouse Ba/F3 cells assessed as reduction in cell viability incubated for 48 hrs by brightglo-luciferase reporter gene assay
[21] = Inhibition of TRKA (unknown origin) transfected in mouse Ba/F3 cells assessed as reduction in cell viability incubated for 48 hrs by brightglo-luciferase reporter gene assay
[22] = Inhibition of TRKB (unknown origin) transfected in mouse Ba/F3 cells assessed as reduction in cell viability incubated for 48 hrs by brightglo-luciferase reporter gene assay
[23] = Inhibition of TRKC (unknown origin) transfected in mouse Ba/F3 cells assessed as reduction in cell viability incubated for 48 hrs by brightglo-luciferase reporter gene assay
[24] = Inhibition of FGFR1 (unknown origin) transfected in mouse Ba/F3 cells assessed as reduction in cell viability incubated for 48 hrs by brightglo-luciferase reporter gene assay
[25] = Inhibition of FGFR2 (unknown origin) transfected in mouse Ba/F3 cells assessed as reduction in cell viability incubated for 48 hrs by brightglo-luciferase reporter gene assay
[26] = Inhibition of FGFR3 (unknown origin) transfected in mouse Ba/F3 cells assessed as reduction in cell viability incubated for 48 hrs by brightglo-luciferase reporter gene assay
[27] = Inhibition of FGFR4 (unknown origin) transfected in mouse Ba/F3 cells assessed as reduction in cell viability incubated for 48 hrs by brightglo-luciferase reporter gene assay
[28] = Inhibition of IGF1R (unknown origin) transfected in mouse Ba/F3 cells assessed as reduction in cell viability incubated for 48 hrs by brightglo-luciferase reporter gene assay
[29] = Inhibition of TYRO3 (unknown origin) transfected in mouse Ba/F3 cells assessed as reduction in cell viability incubated for 48 hrs by brightglo-luciferase reporter gene assay
[30] = Inhibition of ZAP70 (unknown origin) transfected in mouse Ba/F3 cells assessed as reduction in cell viability incubated for 48 hrs by brightglo-luciferase reporter gene assay
[31] = Inhibition of NPM/ALK (unknown origin) transfected in mouse Ba/F3 cells assessed as reduction in cell viability incubated for 48 hrs by brightglo-luciferase reporter gene assay
[32] = Inhibition of KIF5B-RET (unknown origin) transfected in mouse Ba/F3 cells assessed as reduction in cell viability incubated for 48 hrs by brightglo-luciferase reporter gene assay
[33] = Inhibition of PDGFRbeta (unknown origin) transfected in mouse Ba/F3 cells assessed as reduction in cell viability incubated for 48 hrs by brightglo-luciferase reporter gene assay
[34] = Inhibition of PDGFRalpha (unknown origin) transfected in mouse Ba/F3 cells assessed as reduction in cell viability incubated for 48 hrs by brightglo-luciferase reporter gene assay
[35] = Inhibition of KIF5B-RET V804M mutant (unknown origin) transfected in mouse Ba/F3 cells assessed as reduction in cell viability incubated for 48 hrs by brightglo-luciferase reporter gene assay

COc1ccc(-c2cnn3c(N)c(-c4nccs4)c(OC4CCN(C)CC4)nc23)cc1OC
IC50 [1]: 0.21 µM
IC50 [2]: 8.2 µM
IC50 [3]: > 11 µM
IC50 [4]: 4.1 µM
IC50 [5]: 4.3 µM
IC50 [6]: 0.24 µM
IC50 [7]: 1.6 µM
IC50 [8]: 1.2 µM
IC50 [9]: 1.5 µM
IC50 [10]: > 8.7 µM
IC50 [11]: > 11 µM
IC50 [12]: > 11 µM
IC50 [13]: > 11 µM
IC50 [14]: 2.4 µM
IC50 [15]: > 11 µM
IC50 [16]: > 11 µM
IC50 [17]: > 11 µM
IC50 [18]: > 10 µM
IC50 [19]: 3.8 µM
IC50 [20]: > 11 µM
IC50 [21]: > 11 µM
IC50 [22]: 0.77 µM
IC50 [23]: 0.5 µM
IC50 [24]: 3.1 µM
IC50 [25]: 3 µM
IC50 [26]: 4.9 µM
IC50 [27]: 4.4 µM
IC50 [28]: 8.7 µM
IC50 [29]: > 11 µM
IC50 [30]: > 11 µM
IC50 [31]: > 11 µM
IC50 [32]: 0.12 µM
IC50 [33]: 0.041 µM
IC50 [34]: 0.009 µM
IC50 [35]: 0.61 µM
